Source: patent US12239125B2, “Compositions for organ preservation” (SigmaDrugs Kutató Korlátolt Felelösségü Társaság, priority 2016, dated 2025)
Structures can show the parent of a compound that is named as a salt.

Experiments:
autotransplanted kidney = assay: Rat model of kidney isograft autotransplantation (ATx) after cold storage in preservation solution; type: in vivo; conditions: for Kidney function / serum AST levels / serum creatinine levels: vs preservation solution without S1R agonist; for NGAL levels: compared to Custodiol; for Tubular lumen areas (tubular dilatation): vs standard preservation solution, PAS-stained sections
Description: The institutional committee on animal welfare approved all experiments. Experiments were performed on Male Wistar rats weighing 205±15 g (Toxi-Coop Toxicological Research Center, Dunakeszi, Hungary). Animals were housed in a temperature-controlled (22±1° C.) room with alternating light and dark cycles and had free access to standard rat chow and water. Male Wistar rats (n=8/group) were anesthetized with isoflurane (3% vol/vol) mixed with synthetic air (1 L/min) before surgery and placed on a temperature-controlled table to maintain core body temperature. Left kidneys were perfused with cold Custodiol perfusion solution (Na^+: 15 mmol/L; K^+: 9 mmol/L; Mg^2+: 4 mmol/L; Ca^2+: 0.015 mmol/L; histidine: 198 mmol/L; tryptophan: 2 mmol/L; ketoglutarate: 1 mmol/L; mannitol: 30 mmol/L) (Franz Kohler Chemie GMBH, Bensheim, Germany), then removed from the animal: kidneys were placed into a container for 2 hours filled with either (i) cold Custodiol perfusion solution (ATx) or (ii) cold Custodiol perfusion solution containing 0.003 mg/mL FLU (ATx FLU) or (iii) cold Custodiol perfusion solution containing 0.003 mg/mL SA4503 (ATx SA). After 2 hours kidneys were placed back into the rats and end-to-end anastomoses of the renal artery, vein and ureter were performed. […] Total warm ischemia time was 35 min in all animals. Sham operated animals served as controls. After 24 hours of reperfusion, blood samples were collected from the abdominal aorta, the remnant kidneys were harvested, instantly snap-frozen in liquid nitrogen, and stored at -80° C. or fixed in buffered 8% formalin for further processing. The experimental design of the autotransplantation is shown in FIG. 9 Metabolic (glucose, fructosamine, total and HDL-cholesterol, triglycerides) and renal functional parameters from rat sera (sodium, potassium, creatinine, blood urea nitrogen (BUN), aspartate transaminase (AST)) were determined with commercially available kits on a Hitachi 912 photometric chemistry analyzer. Kidneys were fixed in 8% formalin, embedded into paraffin and 5 μm sections were stained with periodic acid-Schiff (PAS) to assess tubular injury. Images were taken with Panoramic Viewer (3[…] Ltd., Budapest, Hungary). Tubular luminal areas were measured in three fields of magnification ×200 per rat. The analysis was performed in a double-blinded fashion with computer-assisted morphometry using Adobe Photoshop CS6 (Adobe Systems Corporation, San José, Calif., USA) and Image J (National Institute of Health, Bethesda, MD, USA) softwares on a Zeiss Axiolmager A1 light-microscope (Carl Zeiss A G, Jena, Germany). Formalin-fixed kidney samples were embedded into paraffin. 5 μm thick sections were mounted on Superfrost slides (Thermo Shandon, Runcorn, UK) and were manually deparaffinized. Assay was performed using the Apoptag® Peroxidase In situ Apoptosis Detection Kit (Millipore, Billerica, MA, USA). Briefly, samples were pretreated with Proteinase K for 15 min. Following repeated washing steps endogenous peroxidase activity was blocked by 3% H2O2 in methanol for 5 min at room temperature. Next, slides were incubated in reaction buffer containing 30% TdT enzyme for 1 hour at room temperature after which Stop buffer was added. Slides were incubated with anti-Dioxigenin Conjugate for 30 min at room temperature. Slides were developed using DAB peroxidase substrate. The areas of TUNEL-positive apoptotic nuclei were measured in three fields of magnification ×200 per rat. The analysis was performed using Adobe Photoshop CS6 (Adobe Systems Corporation, San José, Calif., USA) and Image J (National Institute of Health, Bethesda, MD, USA) softwares on a Zeiss Axiolmager A1 light-microscope (Carl Zeiss A G, Jena, Germany). Formalin-fixed kidney samples were embedded into paraffin. One to two micron thick sections were mounted on Superfrost slides (Thermo Shandon, Runcorn, UK) and were manually deparaffinized. Endogenous peroxidase activity was blocked by 3% H2O2 in methanol for 20 min at room temperature. […]

isolated kidney = assay: Rat model of kidney cold ischemia (cold perfusion and storage of isolated kidney); conditions: for reducing, delaying or preventing functional and/or structural damage of a stored organ or tissue (comparison of the three agonists): fluvoxamine, SA-4503 and PRE-84 compared; for mRNA levels of Bcl-2 / mRNA levels of BAX: stored kidneys; for mRNA levels of BAX: difference not statistically significant
Description: Male Wistar rats were anesthetized with isoflurane (3% vol/vol) mixed with synthetic air (1 L/min) before surgery and placed on a temperature-controlled table to maintain core body temperature. Kidneys (n=6/group) were washed through the renal arteries with 5 ml cold solution, then removed from the animal and placed into a container filled with the same solution for either 2 or 3 hours. […] 3h CP); (viii) Custodiol containing 0.003 mg/mL FLU, 3 hours of cold perfusion (Cust. […] After cold ischemia kidneys were immediately snap-frozen in liquid nitrogen and stored at −80° C. or fixed in buffered 8% formalin for further processing.
Kidneys were fixed in 8% formalin, embedded into paraffin and 5 μm sections were stained with periodic acid-Schiff (PAS) to assess tubular injury. Images were taken with Panoramic Viewer (3[…] Ltd., Budapest, Hungary). Tubular luminal areas were measured in three fields of magnification ×200 per rat. The analysis was performed in a double-blinded fashion with computer-assisted morphometry using Adobe Photoshop CS6 (Adobe Systems Corporation, San José, Calif., USA) and Image J (National Institute of Health, Bethesda, MD, USA) softwares on a Zeiss Axiolmager A1 light-microscope (Carl Zeiss A G, Jena, Germany).
Total RNA was isolated from kidneys with GeneAid Total RNA Mini Kit (Geneaid Biotech Ltd., New Taipei City, Taiwan). 500 ng RNA was reverse-transcribed using Maxima First Strand cDNA Synthesis Kit for RT-qPCR (Thermo Scientific, Waltham, MA, USA) to generate first-strand cDNA. mRNA expressions of Ngal (Lcn2), Kim1, Mcp1, IL-1α (Il1α), IL-6 (Il6), IL-10 (Il10), TNF-α (Tnf), HO-1 (Hmox1), Bax, Bcl-2 (Bcl2), 18S ribosomal RNA (Rn18s) and β-actin (Actb) were determined with real-time RT-PCR using Light Cycler 480 SYBR Green 1 Master enzyme mix on a Light Cycler system (Roche Diagnostics, Mannheim, Germany). The reaction mix contained 10 pmol/μl of each PCR primer (Table 1; Integrated DNA Technologies Inc., Coralville, IA, USA), 10 μl of Light Cycler 480 SYBR Green 1 Master enzyme mix and 1 μl of cDNA sample. The conditions of the PCRs were as follows: 1 cycle at 95° C. for 5 minutes, followed by 70 cycles under the appropriate PCR conditions. Quantification was performed with the second-derivative method by monitoring the cycle number at which the fluorescent sign could be distinguished from the background. Results were analyzed with Light Cycler 480 software version 1.5.0.39 (Roche Diagnostics, Mannheim, Germany). The mRNA expression of each gene was determined by comparison to 18S ribosomal RNA as housekeeping gene from the same sample.
All reagents for Western blotting were purchased from Bio-Rad Laboratories, Hercules, CA, USA unless stated otherwise. Tissue samples were lysed in buffer containing leupeptin, aprotinin, Triton X-100, Tris-HCl, Ethylene glycol-bis (2-aminoethylether),N,N,N′,N′-tetraacetic-acid, NaF, Phenylmethylsulphonylfluoride and Na-orthovanadate (each substance were purchased from Sigma-Aldrich Co., St. Louis, MO, USA). Protein concentrations were determined using Bradford assay. […] Pre-stained protein mixture was used as marker of molecular mass. The separated proteins were transferred into nitrocellulose membranes. Non-specific binding sites were blocked in 5% non-fat dry milk containing blot solution. Membranes were incubated with monoclonal antibody specific to rat cleaved caspase-3 (Asp175) (Cell Signaling Technology, Danvers, MA, USA) diluted to 1:1000. Blots were washed and incubated (1 hour, room temperature) with peroxidase-conjugated goat anti-rabbit IgG secondary antibody (Cell Signaling Technology, Danvers, MA, USA) diluted to 1:4000. […] Bands were analyzed with Quantity One software version 4.6.9. Protein abundance was represented as Integrated Optical Density (IOD)/Ponceau S compared to controls.
Data were analyzed using GraphPad Prism software (GraphPad Software Inc., La Jolla, CA, USA).

PCP receptors = conditions: cited from earlier work
[1] = system: mitochondrial functions (liver); conditions: administered to rats or used in the preservation liquid of isolated liver; cited from earlier work
[2] = 2 h cold storage in Custodiol with 0.003 mg/mL compound, ATx, 24 hours of reperfusion
[3] = stored and subsequently transplanted kidney
[4] = transplantation after storage, vs vehicle
[5] = isolated kidneys stored in Custodiol, vs vehicle

COCCCC/C(=N\OCCN)c1ccc(C(F)(F)F)cc1 [fluvoxamine, fluvoxamine maleate]
Kidney function (autotransplanted kidney; [2]): substantially improved
serum AST levels (autotransplanted kidney; [2]): lower
serum creatinine levels (autotransplanted kidney; [2]): lower
Levels of MCP-1 (autotransplanted kidney; autotransplanted kidneys, vs vehicle): significantly less elevated
mRNA levels of inflammatory cytokines (IL10, IL-1α, TNFα) (autotransplanted kidney; [3]): decreased
protein levels of inflammatory cytokines (IL10, IL-1α, TNFα) (autotransplanted kidney; [3]): decreased
NGAL levels (autotransplanted kidney; transplantation after storage): significantly decreased
histological damage on PAS-stained kidney sections (autotransplanted kidney; transplantation after storage, vs conventional preservation fluid (vehicle)): milder histological damage
Tubular lumen areas (tubular dilatation) (autotransplanted kidney; transplantation after storage): significantly smaller
Tubular lumen areas (tubular dilatation) (autotransplanted kidney; transplantation after storage, listed as FLU): less dilated
BAX expression (mRNA) (autotransplanted kidney; [4]): significant decrease
KIM-1 expression levels (autotransplanted kidney; [4]): significantly lower expression
increase of HO-1 expression (autotransplanted kidney; [4]): prevented
mRNA levels of Bcl-2 (autotransplanted kidney; [4]): significant increase
apoptotic cells in TUNEL assay (autotransplanted kidney; transplantation after storage, vs vehicle treated kidneys): significantly less apoptotic cells
structural damage after prolonged cold ischemia (isolated kidney; 3, 8 or 24 hours of cold ischemia with Flu vs 2 hours ischemia without Flu): less pronounced
increase of tubular damage (tubular lumen areas) from 2 to 3 hours of cold storage (isolated kidney; Custodiol, 2 and 3 hours of cold storage): inhibited this increase of damage
less tissue damage by histologic assay (isolated kidney; after 1.5 fold longer or even 10 fold longer preservation time than organs in same solution without fluvoxamine): 25%
MCP-1 levels (isolated kidney; after storage, vs conventional Custodiol): less elevated
Tubular lumen dilatation (isolated kidney; cold storage without reperfusion, compound 0.003 mg/mL in preservation solution vs solution alone): less dilated
reducing, delaying or preventing functional and/or structural damage of a stored organ or tissue (comparison of the three agonists) (isolated kidney): surprisingly more effective than SA 4503
reducing, delaying or preventing functional and/or structural damage of a stored organ or tissue (comparison of the three agonists) (isolated kidney; listed as Fluvoxamine): most successful of the three compounds
KIM-1 levels (isolated kidney; [5]): decreased dramatically
kidney structure on PAS-stained sections (isolated kidney; perfused with FLU, harvested after 2 hours of cold ischemia): better preserved
KIM-1 levels (isolated kidney; saline): milder, though a tendency of decrease is noticed
NGAL mRNA expression (isolated kidney; saline): Efficacy of fluvoxamine in saline was also demonstrated
mRNA levels of Bcl-2 (isolated kidney): markedly increased
mRNA levels of BAX (isolated kidney): decreased

CCCN(CCC)CCc1ccc(OC)c(OCCc2ccccc2)c1 [NE100, N-dipropyl-2-[4-methoxy-3-(2-phenylethoxy)-phenyl]-ethylamine monohydrochloride]
KIM-1 levels: effect of adding S1R antagonist to fluvoxamine (isolated kidney): diminished the protective effect of fluvoxamine

COc1ccc(CCN2CCN(CCCc3ccccc3)CC2)cc1OC [SA 4503, 1-[2-(3,4-Dimethoxyphenyl)ethyl]-4-(3-phenylpropyl)piperazine]
BUN (Blood urea nitrogen) levels (autotransplanted kidney; [2]): significantly decreased
Kidney function (autotransplanted kidney; [2]): substantially improved
serum AST levels (autotransplanted kidney; [2]): lower
serum creatinine levels (autotransplanted kidney; [2]): lower
NGAL levels (autotransplanted kidney; transplantation after storage): significantly decreased
Tubular lumen areas (tubular dilatation) (autotransplanted kidney; transplantation after storage): significantly smaller
KIM-1 expression levels (autotransplanted kidney; [4]): significantly lower expression
KIM-1 levels (isolated kidney; [5]): inhibited the increase of KIM-1
mRNA levels of Bcl-2 (isolated kidney): no such effect
mRNA levels of BAX (isolated kidney): decreased

O=C(OCCN1CCOCC1)C1(c2ccccc2)CCCCC1 [PRE-084, 2-morpholin-4-dylethyl 1-phenylcyclohexane-1-carboxylate]
IC50 (PCP receptors): > 100 µM
KIM-1 levels (isolated kidney; [5]): inhibited the increase of KIM-1
mRNA levels of BAX (isolated kidney): decreased

COc1ccc(CN2CCN(Cc3ccccc3)CC2)c(O)c1OC [BHDP, N-benzyl-N′-(2-hydroxy-3,4-dimethoxybenzyl)-piperazine]
mitochondrial functions [1]: protected mitochondrial functions
